# Values of other authors, collected in patent US20230381197A1, “COMPOSITIONS FOR NON-SURGICAL PREVENTION OF BOAR TAINT AND […]” (Insigna Inc., priority 2022, published 2023).
# System: Sertoli cells
# Conditions: young male pigs
row,Structure (SMILES),duration of Sertoli cell proliferation and testis size
1,N#Cc1ccc(C(c2ccc(C#N)cc2)n2cncn2)cc1 [Letrozole],highly significant increase
2,"C[C@]12CC[C@@H]3c4ccc(O)cc4C[C@@H](CCCCCCCCC[S+]([O-])CCCC(F)(F)C(F)(F)F)[C@H]3[C@@H]1CC[C@@H]2O (some centres unmarked) [ICI 182,780]",highly significant increase
